Each structure is given as a SMILES string.

The series is described as follows: Human HepG2 cell viability assay in 384 well format. The format is toxicity, cell-based. More on the design: dose 125 nL, time 70.5 hour; cytotoxicity at 70.5 h: concentration not given beside the values. Particulars: HepG2 cells, read-out: Inhibition.
Take `CC1(NC(=O)Cc2csc(-c3cccc(Cl)c3)n2)CCS(=O)(=O)C1` (stereo not drawn): the cytotoxicity at 70.5 h is -63.1%.

Regarding `COC(=O)c1cccc(C(=O)N(C)Cc2ccsc2)c1`, the cytotoxicity at 70.5 h worked out at 22.5%.

In the case of `CCN1CCOC(CNCc2cnc(N(CC)CC)s2)C1` (stereo not drawn), the cytotoxicity at 70.5 h was 5.52%.

`Cc1ccc(S(N)(=O)=O)cc1C(=O)NC1CCCC1`: the cytotoxicity at 70.5 h is -1.13%.

Consider `Cc1ncc(C(=O)NCCNc2ccncc2)s1`, for which the cytotoxicity at 70.5 h was -3.98%.

`CCc1ncc(C(=O)NCCNc2ccncc2)s1`: the cytotoxicity at 70.5 h is -0.807%.

Turning to `COC(=O)N1CCC(NC(=O)c2cc(S(N)(=O)=O)ccc2C)CC1`, the cytotoxicity at 70.5 h is 2.43%.

With `Cc1cc(N(C)C)nc(N2CCCC2c2ccccn2)n1` (stereo not drawn), the cytotoxicity at 70.5 h was -3.12%.

For `CC(=O)N1CCC(NC(=O)c2cc(S(N)(=O)=O)ccc2C)CC1`, the cytotoxicity at 70.5 h was -3.13%.

Turning to `O=C(CC1CCCO1)NS(=O)(=O)Cc1cc(-c2ccccc2)no1` (stereo not drawn), the cytotoxicity at 70.5 h amounted to 20.6%.

As for `COc1cccc(CN(C)CCCn2cnc3c(N)ncnc32)c1`, the cytotoxicity at 70.5 h is -9.38%.

Take `CN(CCCn1cnc2c(N)ncnc21)Cc1ccccc1`: the cytotoxicity at 70.5 h was -4.43%.

For the compound `COC(=O)Nc1cccc(C(=O)N(C)Cc2cccc(O)c2)c1`, the cytotoxicity at 70.5 h was -6.41%.

With `Cc1noc(C)c1CSCc1csc(CS(C)(=O)=O)n1`, the cytotoxicity at 70.5 h was 0.624%.

Turning to `COc1ccc(OCCN(C)CCCn2cnc3c(N)ncnc32)cc1`, the cytotoxicity at 70.5 h is -5.85%.

On to `CCOc1cccc(COC(=O)c2cc(C)on2)n1`, for which the cytotoxicity at 70.5 h turned out to be 1.07%.

For the compound `CNC(=O)COc1c(F)cc(Br)cc1C(C)=O`, the cytotoxicity at 70.5 h is -5.63%.

As for `O=C(C1SCCc2ccccc21)N1CCC(O)CC1` (stereo not drawn), the cytotoxicity at 70.5 h was -7.52%.

In the case of `CN(CC(=O)NS(=O)(=O)c1ccc(F)cc1)Cc1ccccc1`, the cytotoxicity at 70.5 h was -3.97%.

As to `Cc1n[nH]c(C)c1CCC(=O)NC1CCCN(c2ccccc2F)C1` (stereo not drawn), the cytotoxicity at 70.5 h was found to be 6.82%.

On to `Cc1noc(C)c1CN(C)Cc1csc(-c2ccc(F)cc2)n1`, for which the cytotoxicity at 70.5 h is -8.1%.

In the case of `CCOc1ccc(C(=O)NCc2ccnc(N3CCN(C)CC3)c2)cn1`, the cytotoxicity at 70.5 h was -7.61%.

Take `COCc1cc(N(C)Cc2ccccn2)nc(C(C)(C)C)n1`: the cytotoxicity at 70.5 h was -10.1%.

As to `N#Cc1ccc(NCCS(=O)(=O)N2CCc3ccccc32)nc1`, the cytotoxicity at 70.5 h was found to be 13%.

For `CNS(=O)(=O)c1ccc(CNC(=O)N2CCOC(C)C2)cc1` (stereo not drawn), the cytotoxicity at 70.5 h was found to be 10.2%.

Consider `Cc1cc(C)n(CC(C)CNC(=O)NCc2csc(C)n2)n1` (stereo not drawn), for which the cytotoxicity at 70.5 h was found to be 42.1%.

As for `O=C(CCSc1ccccc1F)NCc1cccnc1`, the cytotoxicity at 70.5 h is -8.87%.

Turning to `N#Cc1ccc(CNCCS(=O)(=O)N2CCc3ccccc32)cc1`, the cytotoxicity at 70.5 h is -10.2%.

`N#Cc1cccc(S(=O)(=O)NC(=O)c2csc(-c3ccco3)n2)c1`: the cytotoxicity at 70.5 h is 16.6%.

For the compound `CS(=O)(=O)CCNC(=O)c1cc2ccccc2nc1N1CCCC1`, the cytotoxicity at 70.5 h was -7.07%.

For `COc1ccc2c(c1)NC(=O)C2OC(=O)CCc1ccc(F)cc1` (stereo not drawn), the cytotoxicity at 70.5 h was 2.64%.

On to `O=S(=O)(CC1CCCCO1)Nc1cnn(Cc2ccccc2)c1` (stereo not drawn), for which the cytotoxicity at 70.5 h is -7.62%.

On to `NS(=O)(=O)CCNC(=O)c1cc2ccccc2nc1N1CCCC1`, for which the cytotoxicity at 70.5 h was -5.72%.

As for `O=C(NCC(=O)N1CCCC1Cc1cccc(F)c1)c1ccccn1` (stereo not drawn), the cytotoxicity at 70.5 h is -9.78%.

Turning to `O=C(NCCSc1ccccc1F)NCc1cccnc1`, the cytotoxicity at 70.5 h was -6.59%.

For the compound `CCOC(=O)NCCNC(=O)c1cc2ccccc2nc1N1CCCC1`, the cytotoxicity at 70.5 h amounted to 2.35%.

Regarding `O=C(CCc1ccsc1)Nc1ccnn1C1CCS(=O)(=O)C1` (stereo not drawn), the cytotoxicity at 70.5 h was found to be 16.5%.

`O=C(NCCCSc1ccc(F)cc1)C1CCc2cn[nH]c2C1` (stereo not drawn): the cytotoxicity at 70.5 h was -4.46%.

For the compound `CCCn1nc2c(cc1=O)CN(c1ncnc3sccc13)CC2`, the cytotoxicity at 70.5 h was -10.8%.

As to `Cc1nc(CNC(=O)N2CCN(c3ccc(Cl)cn3)CC2)no1`, the cytotoxicity at 70.5 h was determined as 3.34%.

Consider `CCc1[nH]nc(NC(=O)c2cc[nH]n2)c1C`, for which the cytotoxicity at 70.5 h is 6.09%.

Take `CCc1[nH]nc(NC(=O)c2ccc(Cl)cn2)c1C`: the cytotoxicity at 70.5 h stood at 7.84%.

Take `O=C(Cc1ccon1)N1CCN(c2ccc(F)cc2Cl)CC1`: the cytotoxicity at 70.5 h was -6.01%.

For `CNC(=O)NCC(=O)N1CCCC1Cc1cccc(F)c1` (stereo not drawn), the cytotoxicity at 70.5 h stood at 2.87%.

For the compound `CCc1nc(CCNc2ncccn2)sc1C`, the cytotoxicity at 70.5 h is -7.68%.

Turning to `O=C(CCNCc1cccc2c1OCCCO2)NC1CCCC1`, the cytotoxicity at 70.5 h was found to be 6.45%.

Turning to `CCc1nc2n(n1)CC(NCc1nc3ccccc3nc1C)CC2` (stereo not drawn), the cytotoxicity at 70.5 h is 1.64%.

For `COCc1nc2cc3c(cc2c(=O)o1)OCCCO3`, the cytotoxicity at 70.5 h was -7.11%.

Regarding `COc1ccccc1OCc1nc2cc3c(cc2c(=O)o1)OCCCO3`, the cytotoxicity at 70.5 h worked out at 31.8%.

Take `COC(=O)CSCc1noc(-c2ccc(Cl)cc2)n1`: the cytotoxicity at 70.5 h is -13.5%.

Turning to `COC(=O)CSCc1nc(-c2ccc(Cl)cc2)no1`, the cytotoxicity at 70.5 h turned out to be 11%.

`Cc1ccc(-c2cc(CN(CC(N)=O)CC(C)C)on2)cc1`: the cytotoxicity at 70.5 h is -2.81%.

For `CN(C)c1nc(N)nc(CN2CCCC(c3ccccc3)CC2)n1` (stereo not drawn), the cytotoxicity at 70.5 h is -3.13%.

In the case of `Cc1cc(CN(CC(N)=O)CC(C)C)no1`, the cytotoxicity at 70.5 h is -4.27%.

`CCn1cnnc1CNC(=O)N1CCOC(c2ccc(Cl)cc2)C1` (stereo not drawn): the cytotoxicity at 70.5 h was -13.5%.

`CCn1cnnc1CNC(=O)N1CCOC(c2ccccc2Cl)C1` (stereo not drawn): the cytotoxicity at 70.5 h is -3.84%.

`O=C(Nc1cn[nH]c1)NC1CCN(c2ccccc2OC(F)F)C1` (stereo not drawn): the cytotoxicity at 70.5 h worked out at 2.39%.

In the case of `Cc1cc(CNCC2(O)CCOCC2)ccc1F`, the cytotoxicity at 70.5 h was -0.741%.

In the case of `COC(CNC(=O)c1ccoc1)c1cccc(Cl)c1` (stereo not drawn), the cytotoxicity at 70.5 h was -5.07%.

With `CCc1nc(CCNc2ncccc2S(N)(=O)=O)sc1C`, the cytotoxicity at 70.5 h was determined as 1.18%.

Regarding `CNC(=O)c1cccnc1NCc1ccc(Cn2cccn2)cc1`, the cytotoxicity at 70.5 h is -3.1%.

In the case of `CNC(=O)c1cccnc1NCc1ccc(Cn2ccnc2)cc1`, the cytotoxicity at 70.5 h turned out to be 34.2%.

For `CNC(=O)c1cccnc1NCc1ccc(-n2cccn2)cc1`, the cytotoxicity at 70.5 h was 4%.

`Cc1nnc(CN(C)CC(=O)N2CCCC(C(F)(F)F)C2)n1C` (stereo not drawn): the cytotoxicity at 70.5 h stood at 16.8%.

Take `CN(Cc1nc(C2CC2)no1)C1CCS(=O)(=O)C1` (stereo not drawn): the cytotoxicity at 70.5 h was -4.77%.

Take `COc1ccc(OCc2noc(CN(C)C3CCS(=O)(=O)C3)n2)cc1` (stereo not drawn): the cytotoxicity at 70.5 h was -5.76%.

Turning to `CC(C)Cc1noc(CN(C)C2CCCC2)n1`, the cytotoxicity at 70.5 h came to 28.6%.

As for `CCc1nc2n(n1)CC(NCc1nc3ccccc3o1)CC2` (stereo not drawn), the cytotoxicity at 70.5 h is -8.97%.

Regarding `CCc1nc2n(n1)CC(NCc1cc3ccccc3o1)CC2` (stereo not drawn), the cytotoxicity at 70.5 h is -8.62%.

For `c1ccc(CCN2CCc3c(ncn3C3CC3)C2)nc1`, the cytotoxicity at 70.5 h was -3.33%.

Regarding `CN(C)S(=O)(=O)CCCN1CCc2c(ncn2C2CC2)C1`, the cytotoxicity at 70.5 h came to 9.65%.

For the compound `NC(=O)NC(=O)C(c1ccccc1)N1CCN(Cc2ccc(Cl)s2)CC1` (stereo not drawn), the cytotoxicity at 70.5 h was -3.49%.

Take `O=C(NC1CC1)C(c1ccccc1)N1CCN(Cc2ccc(Cl)s2)CC1` (stereo not drawn): the cytotoxicity at 70.5 h was -3.83%.

On to `O=C1CCC(=O)N1Cc1ccc(C(=O)N2CCCC2c2cccs2)cc1` (stereo not drawn), for which the cytotoxicity at 70.5 h is -11.1%.

As to `CC(C(=O)Nc1ccccc1F)S(C)(=O)=O` (stereo not drawn), the cytotoxicity at 70.5 h is 2.07%.

With `CC(C)CCNC(=O)NC(C)c1nncn1C` (stereo not drawn), the cytotoxicity at 70.5 h was determined as 22%.

With `NC(=O)C1CCN(C(=O)NC2CCc3cc(F)ccc32)CC1` (stereo not drawn), the cytotoxicity at 70.5 h was 2.63%.

As to `O=C(NCC1CCC1)c1ccc(-n2ccnc2)nn1`, the cytotoxicity at 70.5 h was determined as 5.15%.

On to `CN1CCOC(CNC(=O)C2(c3cccc(C(F)(F)F)c3)CCCC2)C1` (stereo not drawn), for which the cytotoxicity at 70.5 h was found to be 6.99%.

With `CC1CCCN(C(=O)c2occc2COc2cccc(C#N)c2)C1` (stereo not drawn), the cytotoxicity at 70.5 h amounted to 4.5%.

On to `Cc1cc(CN(Cc2ccccc2)C2CC2)on1`, for which the cytotoxicity at 70.5 h was -0.663%.

As to `CCNS(=O)(=O)c1ccc(C)c(C(=O)N(C)Cc2ccccc2C)c1`, the cytotoxicity at 70.5 h came out at 2.99%.

`COCCN(Cc1ccc(F)cc1Cl)C(=O)c1cc[n+]([O-])cc1`: the cytotoxicity at 70.5 h came out at 17.1%.

On to `CCc1ccsc1C(=O)N1CCCC(c2noc(C)n2)C1` (stereo not drawn), for which the cytotoxicity at 70.5 h is -2.57%.

Turning to `Cc1nc(C2CCCN(C(=O)c3cc(C)sc3C)C2)no1` (stereo not drawn), the cytotoxicity at 70.5 h is -2.35%.

`CSCCNC(=O)c1cc(Br)cn1C(C)C`: the cytotoxicity at 70.5 h was -1.74%.

On to `CCNS(=O)(=O)c1ccc(C)c(C(=O)N(CCC#N)Cc2ccco2)c1`, for which the cytotoxicity at 70.5 h is 19.1%.

For the compound `CCc1nc(CN2CCCC(N(C)CCn3cccn3)C2)no1` (stereo not drawn), the cytotoxicity at 70.5 h is 57.1%.

With `CCOC(C)C(=O)N1CCN(S(C)(=O)=O)CC1` (stereo not drawn), the cytotoxicity at 70.5 h is -112%.

`CC(NC(=O)C1=NN(C)C(=O)CC1)c1ccccc1Cl` (stereo not drawn): the cytotoxicity at 70.5 h was -96.4%.

Turning to `CS(=O)(=O)CCOc1nc(-c2ccccc2Cl)no1`, the cytotoxicity at 70.5 h is -102%.

For the compound `CC(CN1CCCC1=O)NC(=O)c1ccc(C(F)(F)F)[nH]c1=O` (stereo not drawn), the cytotoxicity at 70.5 h was -74.6%.

`CCc1ncc2c(n1)CN(Cc1cc(C)on1)CC2`: the cytotoxicity at 70.5 h is -106%.

For the compound `CC(CN1CCCC1=O)NC(=O)c1cc(=O)[nH]c2ccc(Cl)cc12` (stereo not drawn), the cytotoxicity at 70.5 h was -85.6%.

Turning to `Cc1n[nH]c(C2CN(CC(=O)NCCc3ccc(F)cc3)CCO2)n1` (stereo not drawn), the cytotoxicity at 70.5 h was -114%.

For the compound `O=C(NS(=O)(=O)c1c(Cl)cccc1Cl)c1cccc2c1OCCO2`, the cytotoxicity at 70.5 h is -103%.

`COC(=O)c1ccccc1S(=O)(=O)NC(=O)c1cccc2c1OCCO2`: the cytotoxicity at 70.5 h was -100%.

`CCC(COC)NC(=O)N1CCC(n2ccc(C(F)(F)F)n2)CC1` (stereo not drawn): the cytotoxicity at 70.5 h is -104%.

`O=C(NCCCF)N1CCC(n2ccc(C(F)(F)F)n2)CC1`: the cytotoxicity at 70.5 h is -104%.

For `COC(C)(C)CNC(=O)N1CCC(n2ccc(C(F)(F)F)n2)CC1`, the cytotoxicity at 70.5 h was -76.1%.

On to `Cc1cccc(C(=O)N2CCN(S(C)(=O)=O)[C@@H](C)C2)c1Cl`, for which the cytotoxicity at 70.5 h was -102%.

As for `CCc1ncc2c(n1)CN(Cc1nnc(C(C)C)o1)CC2`, the cytotoxicity at 70.5 h is -99.6%.

Consider `CCc1ncc2c(n1)CN(Cc1nnc(CC)o1)CC2`, for which the cytotoxicity at 70.5 h is -79.4%.

The values are drawn from ChEMBL document CHEMBL3507680, “University of Dundee, Gates Library screen for HepG2 cell viability”.
